The values that follow come from patent US10329303B2, “Heterocyclic inhibitors of monocarboxylate transporter” (THE SCRIPPS RESEARCH INSTITUTE, priority 2015, dated 2019).

Data set [1] deals with Raji (Burkitt's) lymphoma cells. Put plainly: MTT assay for 4-day viability of Raji (Burkitt's) lymphoma cells. Conditions: Homo sapiens, 96 h, Raji cells (highly express MCT1), read-out: approximate potency (EC50). It is filed as cell-based. The text has this: Specific Examples 1-52 of compounds of the invention, with estimated EC50 values determined using an MTT assay for 4-day viability of Raji (Burkitt's) lymphoma cells, a cell line known to highly express MCT1 and to be sensitive to small molecule MCT inhibitors,^4 are shown in Table 2. Assay protocols follow those described in the literature.^4 Other assays that are not described here but that are standard in the field, such as an assay for competitive inhibition of transport of radiolabeled lactic acid, an MCT substrate, may also be useful in establishing mechanism of action of these compounds.

In data set [2] the test system is Raji Burkitt's lymphoma cells. The data set is described as follows: Mouse xenograft study, tumor volume and tumor weight. The class given is in vivo. Particulars: Raji xenograft in mice, 30 mg/kg daily; for final tumor mass: tumor mass measured at day 29, relative to vehicle; for tumor growth over time (tumor volume): ~20 days of treatment, relative to vehicle. As for the experimental part:
(§1) Protocols follow those described in the literature.^4 Mice were transplanted with cultured tumor cells and, after an incubation period (typically 10 days), mice were left untreated or were treated daily with a 30 mg/kg dose of the test compound. Tumor volumes were measured with calipers over ˜20 days of treatment. Tumors were excised and weighed at the end of treatment. In two experiments using Raji Burkitt's lymphoma cells^4, the compounds studied were the product of example 9 (FIG. 3), code named SR-11105, and the product of example 21 (FIG. 4), code named SR-13779.

The nature of data set [3]: Mouse xenograft study, animal body weight. The class given is in vivo. Particulars: Raji xenograft mice, 30 mg/kg daily, over the course of the study. As for the experimental part: as §1

SMILES strings stand for the structures. Entries after “also recorded” stand apart in the source; their conditions may differ.

Consider `Cc1n[nH]c(C)c1Cc1sc2c(c1-c1ccc(F)c(CO)c1)c(=O)n(C)c(=O)n2CC(C)C` [Example 9, 6-((3,5-dimethyl-1H-pyrazol-4-yl)methyl)-5-(4-fluoro-3-(hydroxymethyl)phenyl)-1-isobutyl-3-methylthieno[2,3-d]pyrimidine-2,4(1H,3H)-dione], for which the concentration for a half-maximal effect (EC50) in data set [1] was at most 20 nM. Besides, in data set [2], the final tumor mass result is “significant reduction in final tumor mass” and the “tumor growth over time (tumor volume)” value is “significant reduction of tumor growth rate”. For the same molecule, in data set [3], the animal body weight entry is recorded as “maintained their body weight”.
As for `Cc1n[nH]c(C)c1Cc1sc2c(c1-c1ccc(F)c(CO)c1F)c(=O)n(C1CC1)c(=O)n2CC(C)C` [Example 21, 3-cyclopropyl-5-(2,4-difluoro-3-(hydroxymethyl)phenyl)-6-((3,5-dimethyl-1H-pyrazol-4-yl)methyl)-1-isobutylthieno[2,3-d]pyrimidine-2,4(1H,3H)-dione], in data set [1], the EC50 is at most 20 nM. In data set [2] (listed as SR-13779), the final tumor mass result is recorded as “significant reduction in final tumor mass; also recorded: more pronounced effect”. The “tumor growth over time (tumor volume)” value in data set [2] is “effectively blocked tumor growth”. For the same molecule, in data set [3], the animal body weight result was “maintained their body weight”.
With `CC(C)Cc1nn(C)c(=O)c2c(-c3cc(CO)ccc3Cl)n(Cc3cccc4ccccc34)cc12` [Example 30, 7-(2-chloro-5-(hydroxymethyl)phenyl)-4-isobutyl-2-methyl-6-(naphthalen-1-ylmethyl)-2,6-dihydro-1H-pyrrolo[3,4-d]pyridazin-1-one], the EC50 in data set [1] stood at 600 nM.
Still for that read-out and setting: next, `CC(C)Cc1nn(C)c(=O)c2c(-c3cccc(CO)c3)n(Cc3cccc4ccccc34)cc12` [Example 31, 7-(3-(hydroxymethyl)phenyl)-4-isobutyl-2-methyl-6-(naphthalen-1-ylmethyl)-2,6-dihydro-1H-pyrrolo[3,4-d]pyridazin-1-one]: 100 nM.
For `CC(C)Cc1nn(C)c(=O)c2c(-c3cncc(CO)c3)n(Cc3cccc4ccccc34)cc12` [Example 32, 7-(5-(hydroxymethyl)pyridin-3-yl)-4-isobutyl-2-methyl-6-(naphthalen-1-ylmethyl)-2,6-dihydro-1H-pyrrolo[3,4-d]pyridazin-1-one], in data set [1], the half-maximal effective concentration (EC50) is 900 nM.
On the same count and under the same terms, to `CC(C)Cc1nn(C)c(=O)c2c(-c3csc(C(C)O)c3)n(Cc3cccc4ccccc34)cc12` (stereo not shown) [Example 33, 7-(5-(1-hydroxyethyl)thiophen-3-yl)-4-isobutyl-2-methyl-6-(naphthalen-1-ylmethyl)-2,6-dihydro-1H-pyrrolo[3,4-d]pyridazin-1-one] belongs 70 nM; to `CC(C)Cc1nn(C)c(=O)c2c(-c3cccc(C(C)O)n3)n(Cc3cccc4ccccc34)cc12` (stereo not shown) [Example 34, 7-(6-(1-hydroxyethyl)pyridin-2-yl)-4-isobutyl-2-methyl-6-(naphthalen-1-ylmethyl)-2,6-dihydro-1H-pyrrolo[3,4-d]pyridazin-1-one], 1000 nM.
Regarding `CC(C)Cc1nn(C)c(=O)c2c(-c3cc(C(C)O)ccc3F)n(Cc3cccc4ccccc34)cc12` (stereo not shown) [Example 35, 7-(2-fluoro-5-(1-hydroxyethyl)phenyl)-4-isobutyl-2-methyl-6-(naphthalen-1-ylmethyl)-2,6-dihydro-1H-pyrrolo[3,4-d]pyridazin-1-one], the EC50 in data set [1] is 80 nM.
For `CC(C)Cc1nn(C)c(=O)c2c(-c3cccc(C(C)O)c3)n(Cc3cccc4ccccc34)cc12` (stereo not shown) [Example 36, 7-(3-(1-hydroxyethyl)phenyl)-4-isobutyl-2-methyl-6-(naphthalen-1-ylmethyl)-2,6-dihydro-1H-pyrrolo[3,4-d]pyridazin-1-one], in data set [1], the EC50 amounted to 100 nM.
Still for that read-out and setting: next, `CC(C)Cc1nn(C)c(=O)c2c(-c3csc(C(O)C(F)(F)F)n3)n(Cc3cccc4ccccc34)cc12` (stereo not shown) [Example 37, 4-isobutyl-2-methyl-6-(naphthalen-1-ylmethyl)-7-(2-(2,2,2-trifluoro-1-hydroxyethyl)thiazol-4-yl)-2,6-dihydro-1H-pyrrolo[3,4-d]pyridazin-1-one]: 100 nM; `CC(C)Cc1nn(C)c(=O)c2c(-c3csc(C(O)C(F)(F)F)c3)n(Cc3cccc4ccccc34)cc12` (stereo not shown) [Example 38, 4-isobutyl-2-methyl-6-(naphthalen-1-ylmethyl)-7-(5-(2,2,2-trifluoro-1-hydroxyethyl)thiophen-3-yl)-2,6-dihydro-1H-pyrrolo[3,4-d]pyridazin-1-one]: at most 20 nM; `CC(C)Cc1nn(C)c(=O)c2c(-c3ccc(C(O)C(F)(F)F)s3)n(Cc3cccc4ccccc34)cc12` (stereo not shown) [Example 39, 4-isobutyl-2-methyl-6-(naphthalen-1-ylmethyl)-7-(5-(2,2,2-trifluoro-1-hydroxyethyl)thiophen-2-yl)-2,6-dihydro-1H-pyrrolo[3,4-d]pyridazin-1-one]: 90 nM.
The same measure, in the same setting: to `CC(C)Cc1nn(C)c(=O)c2c(-c3cccc(C(O)C(F)(F)F)c3)n(Cc3cccc4ccccc34)cc12` (stereo not shown) [Example 40, 4-isobutyl-2-methyl-6-(naphthalen-1-ylmethyl)-7-(3-(2,2,2-trifluoro-1-hydroxyethyl)phenyl)-2,6-dihydro-1H-pyrrolo[3,4-d]pyridazin-1-one] belongs 50 nM; to `CC(C)Cc1nn(C)c(=O)c2c(-c3cc(CO)ccc3F)n(Cc3ccc(-c4ccccc4)cc3)cc12` [Example 41, 6-([1,1′-biphenyl]-4-ylmethyl)-7-(2-fluoro-5-(hydroxymethyl)phenyl)-4-isobutyl-2-methyl-2,6-dihydro-1H-pyrrolo[3,4-d]pyridazin-1-one], 800 nM.
On to `CC(C)Cc1nn(C)c(=O)c2c(-c3cccc(C(C)O)c3)n(Cc3ccc(-c4ccccc4)cc3)cc12` (stereo not shown) [Example 42, 6-([1,1′-biphenyl]-4-ylmethyl)-7-(3-(1-hydroxyethyl)phenyl)-4-isobutyl-2-methyl-2,6-dihydro-1H-pyrrolo[3,4-d]pyridazin-1-one], for which the EC50 in data set [1] is 1000 to 10000 nM.
In the case of `Cc1n[nH]c(C)c1Cn1cc2c(CC(C)C)nn(C)c(=O)c2c1-c1cccc(CO)c1` [Example 43, 6-((3,5-dimethyl-1H-pyrazol-4-yl)methyl)-7-(3-(hydroxymethyl)phenyl)-4-isobutyl-2-methyl-2,6-dihydro-1H-pyrrolo[3,4-d]pyridazin-1-one], the concentration for a half-maximal effect (EC50) in data set [1] was 500 nM.
Take `Cc1n[nH]c(C)c1Cn1cc2c(CC(C)C)nn(C)c(=O)c2c1-c1cc(CO)ccc1F` [Example 44, 6-((3,5-dimethyl-1H-pyrazol-4-yl)methyl)-7-(2-fluoro-5-(hydroxymethyl)phenyl)-4-isobutyl-2-methyl-2,6-dihydro-1H-pyrrolo[3,4-d]pyridazin-1-one]: the EC50 in data set [1] stood at 200 nM.
Consider `Cc1n[nH]c(C)c1Cn1cc2c(CC(C)C)nn(C)c(=O)c2c1-c1cccc(C(O)C(F)(F)F)c1` (stereo not shown) [Example 45, 6-((3,5-dimethyl-1H-pyrazol-4-yl)methyl)-4-isobutyl-2-methyl-7-(3-(2,2,2-trifluoro-1-hydroxyethyl)phenyl)-2,6-dihydro-1H-pyrrolo[3,4-d]pyridazin-1-one], for which the EC50 in data set [1] was at most 20 nM.
As for `CC(C)Cc1nn(C)c(=O)c2c(-c3cccc(CO)c3)n(Cc3cc(Cl)nc4ccccc34)cc12` [Example 46, 6-((2-chloroquinolin-4-yl)methyl)-7-(3-(hydroxymethyl)phenyl)-4-isobutyl-2-methyl-2,6-dihydro-1H-pyrrolo[3,4-d]pyridazin-1-one], in data set [1], the EC50 is 1000 to 10000 nM.
`CC(C)Cc1nn(C)c(=O)c2c(-c3cccc(CO)c3)n(Cc3cnc(Cl)c4ccccc34)cc12` [Example 47, 6-((1-chloroisoquinolin-4-yl)methyl)-7-(3-(hydroxymethyl)phenyl)-4-isobutyl-2-methyl-2,6-dihydro-1H-pyrrolo[3,4-d]pyridazin-1-one]: in data set [1], the half-maximal effective concentration (EC50) was 1000 to 10000 nM.
Same read-out and setting: to `CC(C)Cc1nn(C)c(=O)c2c(-c3cccc(CO)c3)n(CCOc3ccccc3Cl)cc12` [Example 48, 6-(2-(2-chlorophenoxy)ethyl)-7-(3-(hydroxymethyl)phenyl)-4-isobutyl-2-methyl-2,6-dihydro-1H-pyrrolo[3,4-d]pyridazin-1-one] belongs 1000 to 10000 nM.
Consider `CC(C)Cc1nn(C)c(=O)c2c(-c3cccc(CO)c3)n(Cc3cc(NCCCCCN)nc4ccccc34)cc12` [Example 49, 6-((2-((5-aminopentyl)amino)quinolin-4-yl)methyl)-7-(3-(hydroxymethyl)phenyl)-4-isobutyl-2-methyl-2,6-dihydro-1H-pyrrolo[3,4-d]pyridazin-1-one], for which the EC50 in data set [1] fell in the range of 1000 to 10000 nM.

A word on the EC50: it is the concentration needed to bring the measured effect to its halfway point.
